The results in this text go back to PMC3341351, “Down-Regulation of GABAA Receptor via Promiscuity with the Vasoactive Peptide Urotensin II Receptor. Potential Involvement in Astrocyte Plasticity” (PLoS ONE, 2012).

Test [1] has as its system α2β1γ1 GABAAR co-expressed with human UT. Nature of the test: Patch-clamp of Iso-evoked current in CHO-UT expressing α2β1γ1 GABAAR. In kind it is cell-based. The settings on record: hUII 10^−13 to 10^−7 M; Iso 10^−4 M, 2 s; −60 mV. Here is the method:
CHO-K1 cell lines were obtained from American Type Culture Collection (Manassas, VA, USA). The human UT stable CHO (CHO-UT) was generously provided by Dr Christophe Dubessy (Inserm, Rouen University, France) et generated by CHO electroporation with 20 µg pIRES-neo2-UT DNA and 500 µg sterile sonicated salmon sperm DNA using the EasyJect One electroporation system (Equibio, Angleur, Belgium), followed by repetitive rounds of limiting dilution of cells in G-418 (400 µg/ml) for selection. Normal or stable CHO was grown in Ham-F12 medium supplemented with 10% FBS, 1% antibiotic-antimicotic solution and 2 mM glutamine, at 37°C in a humidified incubator with an atmosphere of 5% CO2. The stable CHO-UT medium was supplemented with the antibiotic G-418 (40 µg/ml).
For transfection, cells were trypsinized (0.05%), triturated in HamF-12 containing 10% FBS media, pelleted by centrifugation, resuspended in 100 µl solution V for nucleofection by an Amaxa Nucleofector Device (Köln, Germany; set to program U-016). Experiments were performed on normal CHO or on the stable CHO-UT cells and transiently transfected with combinations of cDNA encoding α2β3γ2, α2β3γ1, α2β1γ2, α2β3γ1, α2β3, β3γ2 (4 µg of cDNA total/transfection) GABAAR subunits. Cells were seeded on 14-mm poly-L-lysine-coated glass bottom insert dishes at 5×10^5 cells in a volume of 0.5 ml/dish. […]
Background: Patch clamp records ionic current or voltage across a cell membrane.

The subject of test [2] is α2β3γ2 GABAAR in the absence of UT. Kind of test: Patch-clamp of Iso-evoked current in CHO expressing α2β3γ2 GABAAR without UT. In kind it is cell-based. The note with it: DMCM 10^−5 M; hUII and URP 10^−8 M; [Orn^5]-URP and palosuran 10^−6 M; Iso 10^−4 M, 2 s; n = 3–18. Here is the method: For transfection, cells were trypsinized (0.05%), triturated in HamF-12 containing 10% FBS media, pelleted by centrifugation, resuspended in 100 µl solution V for nucleofection by an Amaxa Nucleofector Device (Köln, Germany; set to program U-016). Experiments were performed on normal CHO or on the stable CHO-UT cells and transiently transfected with combinations of cDNA encoding α2β3γ2, α2β3γ1, α2β1γ2, α2β3γ1, α2β3, β3γ2 (4 µg of cDNA total/transfection) GABAAR subunits. Cells were seeded on 14-mm poly-L-lysine-coated glass bottom insert dishes at 5×10^5 cells in a volume of 0.5 ml/dish. Cells were incubated overnight at 37°C in a humidified incubator (5% CO2) during 16 h before electrophysiological or immunocytochemical experiments.
GABAA receptor cDNA clones; α2, β1, β3, γ1 and γ2L engineered into the expression vector pCDM8 ([…], β1, γ2) or pcDNA/Amp (β3, γ1), were generously provided by Dr Wingrove (Merk Sharp and Dohme, Harlow, UK). To obtain β3 ^HA or γ2 ^HA epitope-tagged subunits, β3 or γ2 cDNA was amplified and the PCR product was subcloned using the SalI and NotI sites of pCMV-HA (Table S2) after digestion by the same restriction enzymes.
The conventional whole-cell configuration of the patch-clamp technique was used to study the GABA-gated currents in astrocytes and granule neurons, UT stably transfected CHO, CHO-UT, and CHO transiently transfected with diverse variants of UT and GABAAR subunits. After 24-h transfection, cell culture coverslips were placed in a small chamber (1.5 ml) on a stage of a right microscope DMLFSA (Leica, Heidelberg, Germany) and superfused continuously with the following bath solution containing (in mM): NaCl, 150; KCl, 2.5; HEPES, 5; CaCl2, 2; MgCl2, 1; glucose, 10 (pH 7.4 adjusted with NaOH). The patch pipettes were fabricated from 1.5 mm (outer diameter) soft glass tubes on a two-step vertical pipette puller (List-Medical, L/M-3P-A, Darmstadt, Germany). […] ATP and GTP were added to the internal solution used to fill electrode just before recording. All recordings were obtained at RT with cells voltage-clamped at −70 mV. The GABAA receptor agonist isoguvacine was prepared in the extracellular solution and was applied to cells by pneumatic pressure ejection. To prevent desenzitization, isoguvacine was more often ejected during 5 s at 2-min intervals. ATP, GTP, or guanosine 5′-O-(2-thiodiphosphate) (GDPβS) were administered through the patch pipette solution. We investigated the effect of competitive inhibition of GDP-GTP exchange by including GDPβS in the pipette solution (in addition to the normal amount of GTP). For GDPβS and the KIC, immediately following patch rupture, GABA current recordings were performed and the experiment was commenced after an equilibration period of 15 min. […]

Consider “ETPDCFWKYCV (disulfide) [hUII, human urotensin II, synthesized by solid phase methodology]”, for which the “Inhibitory effect on Iso-evoked current, α2β1γ1” value in test [1] was “less effective”. Moreover, the “Effect on Iso-evoked current in the absence of UT” value in test [2] is “failed to affect the amplitude of the current”.
